Measured values as given in ChEMBL document CHEMBL4420067, “Inhibitors of alpha-amino-beta-carboxymuconic acid semialdehyde decarboxylase” (2018).
pIC50: −log10 of the molar value.

target: 2-amino-3-carboxymuconate-6-semialdehyde decarboxylase (Homo sapiens, UniProt Q8TDX5); test: Inhibition of human recombinant ACMSD1 expressed in Escherichia coli BL21 (DE3) cells assessed as reduction in conversion of 3-OH-anthranilic acid into ACMS by spectrophotometry
Sequence (Q8TDX5 whole entry): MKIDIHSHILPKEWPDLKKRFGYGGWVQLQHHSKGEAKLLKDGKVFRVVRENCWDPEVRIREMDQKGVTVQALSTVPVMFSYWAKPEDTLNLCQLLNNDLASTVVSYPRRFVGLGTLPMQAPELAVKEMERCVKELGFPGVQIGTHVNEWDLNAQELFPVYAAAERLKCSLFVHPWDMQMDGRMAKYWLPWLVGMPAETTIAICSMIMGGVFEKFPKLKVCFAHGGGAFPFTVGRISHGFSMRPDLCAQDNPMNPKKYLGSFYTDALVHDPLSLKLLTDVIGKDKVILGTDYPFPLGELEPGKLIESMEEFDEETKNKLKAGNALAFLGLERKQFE

| SMILES | pIC50 |
| --- | --- |
| CCOc1cccc(/C=C/c2[nH]c(=S)[nH]c(=O)c2C#N)c1OCC(=O)O | < 7.00 |
| N#Cc1c(/C=C/c2cccc(O)c2O)[nH]c(=S)[nH]c1=O | < 7.00 |
| COc1cccc(/C=C/c2[nH]c(=S)[nH]c(=O)c2C#N)c1OCC(=O)O | < 7.00 |
| COc1cccc(/C=C/c2[nH]c(=O)[nH]c(=O)c2[N+](=O)[O-])c1OCC(=O)O | < 7.00 |
| N#Cc1c(/C=C/c2ccccc2-c2cc(F)c(O)c(F)c2)[nH]c(=S)[nH]c1=O | < 7.00 |
